What was measured:
Assay in all cases: relative viability (nuclei count vs DMSO), 5 days (fraction); higher = more cells survive
[1] = compound: C1=CC=C2C(=C1)N=C(S2)C(C#N)C3=NC(=NC=C3)NCCC4=CN=CC=C4 + COc1cccc2cc(-c3nc([C@H]4CC[C@H](C(=O)O)CC4)n4ncnc(N)c34)[nH]c12 [OSI-027] (partner 0.5 µM)
Outline: (§1)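 Cells from lung cancer lines were seeded into 1536-well plates and, one day later, dosed by pin tool. Treatments were either a single drug or a fixed dose of an anchor drug with five library-drug doses (not always all listed) in √10 steps. After 5 days, nuclei were stained in a one-step fixation (final 0.05% Triton X-100, 1% formaldehyde, 1 ug/ml Hoechst) and counted on 4× images, and relative viability is the treated-to-vehicle nuclei ratio, as the median of duplicate plates.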

CUDC-101 + Navitoclax = compound: C#Cc1cccc(Nc2ncnc3cc(OC)c(OCCCCCCC(=O)NO)cc23)c1 [CUDC-101] + CC1(C)CCC(c2ccc(Cl)cc2)=C(CN2CCN(c3ccc(C(=O)NS(=O)(=O)c4ccc(N[C@H](CCN5CCOCC5)CSc5ccccc5)c(S(=O)(=O)C(F)(F)F)c4)cc3)CC2)C1 [Navitoclax] (partner 0.5 µM)
Outline: as §1

NVP-TAE684 + OSI-027 = compound: COc1cc(N2CCC(N3CCN(C)CC3)CC2)ccc1Nc1ncc(Cl)c(Nc2ccccc2S(=O)(=O)C(C)C)n1 [NVP-TAE684] + COc1cccc2cc(-c3nc([C@H]4CC[C@H](C(=O)O)CC4)n4ncnc(N)c34)[nH]c12 [OSI-027] (partner 0.5 µM)
Outline: as §1

CUDC-101 + Linsitinib = compound: C#Cc1cccc(Nc2ncnc3cc(OC)c(OCCCCCCC(=O)NO)cc23)c1 [CUDC-101] + C[C@]1(O)C[C@@H](c2nc(-c3ccc4ccc(-c5ccccc5)nc4c3)c3c(N)nccn32)C1 [Linsitinib] (partner 1 µM)
Outline: as §1

UMC-11
relative viability ([1]; first compound 0.005 µM): 0.408
relative viability ([1]; first compound 0.01581 µM): 0.493
relative viability ([1]; first compound 0.05 µM): 0.445
relative viability ([1]; first compound 0.1581 µM): 0.468
relative viability ([1]; first compound 0.5 µM): 0.35
relative viability (CUDC-101 + Navitoclax; first compound 0.01 µM): 0.313
relative viability (CUDC-101 + Navitoclax; first compound 0.03162 µM): 0.302
relative viability (CUDC-101 + Navitoclax; first compound 0.1 µM): 0.257
relative viability (CUDC-101 + Navitoclax; first compound 0.3162 µM): 0.225
relative viability (CUDC-101 + Navitoclax; first compound 1 µM): 0.0766
relative viability (NVP-TAE684 + OSI-027; first compound 0.2 µM): 0.412
relative viability (NVP-TAE684 + OSI-027; first compound 0.6325 µM): 0.438
relative viability (NVP-TAE684 + OSI-027; first compound 2 µM): 0.282
relative viability (CUDC-101 + Linsitinib; first compound 0.01 µM): 1.07
relative viability (CUDC-101 + Linsitinib; first compound 0.03162 µM): 0.97
relative viability (CUDC-101 + Linsitinib; first compound 0.1 µM): 1.03
relative viability (CUDC-101 + Linsitinib; first compound 0.3162 µM): 0.864
relative viability (CUDC-101 + Linsitinib; first compound 1 µM): 0.208
